From patent US10244779B2, “Method of improving stability of sweet enhancer and composition containing stabilized sweet enhancer” (SENOMYX, INC., priority 2010, dated 2019) come the findings set out here.

SMILES strings stand for the structures.

Test in the first data set: not given
Settings: not given
As a reminder, the melting point is the temperature, or range, at which the solid turns liquid. As for `Cc1nc2cccc(OCC(C)(C)NC(=O)CC3CCOCC3)c2c(N)c1C(=O)O` [Example 145, 4-amino-2-methyl-5-(2-methyl-2-(2-(tetrahydro-2H-pyran-4-yl)acetamido)-propoxy)quinoline-3-carboxylic Acid], the melting point was 175 to 178 °C.
The same measure, in the same setting: the same measure for `Cc1nc2cccc(OCC(C)(C)C(=O)NCC3CC3)c2c(N)c1C(=O)O` [Example 146, 4-amino-5-(3-((cyclopropylmethyl)amino)-2,2-dimethyl-3-oxopropoxy)-2-methylquinoline-3-carboxylic Acid]: 177 to 179 °C; for `CCCCNC(=O)C(C)(C)COc1cccc2nc(C)c(C(=O)O)c(N)c12` [Example 147, 4-amino-5-(3-(butylamino)-2,2-dimethyl-3-oxopropoxy)-2-methylquinoline-3-carboxylic Acid]: 195 to 199 °C; for `CCC(CC)NC(=O)C(C)(C)COc1cccc2nc(C)c(C(=O)O)c(N)c12` [Example 148, 4-amino-5-(2,2-dimethyl-3-oxo-3-(pentan-3-ylamino)propoxy)-2-methyl-quinoline-3-carboxylic Acid]: 172 to 174 °C.
The same measure, in the same setting: the same measure for `Cc1nc2cccc(OCC(C)(C)NC(=O)CN3CCOCC3)c2c(N)c1C(=O)O` [Example 149, 4-amino-2-methyl-5-(2-methyl-2-(2-morpholinoacetamido)propoxy)quinoline-3-carboxylic Acid]: 173 to 175 °C; for `Cc1nc2cccc(OCC(C)(C)C(=O)NCC(C)C)c2c(N)c1C(=O)O` [Example 150, 4-amino-5-(3-(isobutylamino)-2,2-dimethyl-3-oxopropoxy)-2-methylquinoline-3-carboxylic Acid]: 176 to 179 °C.
The same measure, in the same setting: the same measure for `Cc1nc2cccc(OCC(C)(C)C(=O)NCC3CCC3)c2c(N)c1C(=O)O` [Example 151, 4-amino-5-(3-((cyclobutylmethyl)amino)-2,2-dimethyl-3-oxopropoxy)-2-methylquinoline-3-carboxylic Acid]: 170 to 172 °C; for `CCC(=O)N1CCC(COc2cccc3nc(C)c(C(=O)O)c(N)c23)CC1` [Example 153, 4-amino-2-methyl-5-((1-propionylpiperidin-4-yl)methoxy)quinoline-3-carboxylic Acid]: 168 to 170 °C.
Turning to `CNC(=O)[C@H]1CC[C@H](Oc2cccc3nc(C)c(C(=O)O)c(N)c23)CC1` [Example 154, 4-amino-2-methyl-5-(((1,4)-trans-4-(methylcarbamoyl)cyclohexyl)oxy)quinoline-3-carboxylic Acid], the melting point was in the range of 195 to 198 °C.
Turning to `CCCOc1cccc2c1C(N)=NS(=O)(=O)N2` [Example 158, 4-Amino-5-(propyloxy)-1H-benzo[c][1,2,6]thiadiazine-2,2-dioxide], the melting point is 229 to 230 °C.
The same measure, in the same setting: in the case of `Nc1nc(=O)[nH]c2sc3c(c12)CCOC3` [Example 159, 4-Amino-5,6-(5′,7′-dihydro-4′H-[2′,3′-c]pyrano)thieno[2,3-d]-pyrimidine-2(1H)-one] it was more than 260 °C; in that of `CCCNC(=O)C(C)(C)COc1cccc2c1C(N)=NS(=O)(=O)N2` [Example 197, 3-(4-Amino-2,2-dioxide-1H-benzo[c][1,2,6]thiadiazin-5-yloxy)-2′,2′-dimethyl-N-propylpropanamide], 225 to 226 °C.
Still for that read-out and setting: in the case of `CC(C)(COc1cccc2c1C(N)=NS(=O)(=O)N2)NC(=O)c1ccccc1` [Example 198, N-(1-(4-amino-2,2-dioxide-1H-benzo[c][1,2,6]thiadiazin-5-yloxy)-2′-methylpropan-2′-yl)benzamide] it was 235 to 236 °C.

A short description of another data set: Photostability of Compound A in various mediums (water, brewed coffee, tea, TBHQ in water; FIG. 1). It counts as physicochemical. The following applies: TBHQ 200 ppm in water. The method, then: The equivalent sunlight exposure time for 24 hours in the Q-Sun at a constant temperature of 25° C. and irradiance of 450 mW/m^2 @340 nm is estimated to be equivalent to approximately 15.9 days of direct sunlight in the Southwestern United States.
FIG. 1 illustrates the effect of coffee and tea on rate of photo-degradation of Compound A relative to water alone.
As to `CC(C)(C)c1cc(O)ccc1O` [tert-butyl hydroquinone], the “effect on the rate of photo-degradation of Compound A” value was “marginal effect”.
